Values of other authors, collected in patent US7282218B2, “pH sensitive polymer for inhibiting transformation in drugs” (Council of Scientific and Industrial Research, priority 2003, dated 2007).

Assays:
[1] = humans
[2] = amorphous vs crystalline

Structure (SMILES) | bioavailability [1] | solubility of amorphous form relative to the crystalline form [2] [times]
CO/N=C(\C(=O)N[C@@H]1C(=O)N2C(C(=O)OC(C)OC(C)=O)=C(COC(N)=O)CS[C@H]12)c1ccco1 (some centres unmarked) [Cefuroxime axetil] | 32-50% | –
CO[C@@H]1[C@@H](OC(N)=O)[C@@H](O)[C@H](Oc2ccc3c(O)c(NC(=O)c4ccc(O)c(CC=C(C)C)c4)c(=O)oc3c2C)OC1(C)C [novobiocin] | – | 10
